Source: patent US9045445B2, “Glycine transporter-1 inhibitors, methods of making them, and uses thereof” (Albany Molecular Research, Inc., priority 2010, dated 2015)
Structures can show the parent of a compound that is named as a salt.

What was measured:
[1] = biological target: T1, glycine transporter-2 (GlyT-2) (Homo sapiens, UniProt Q9Y345); test: [14C]glycine uptake assay in HEK-GlyT-2 transfected cells; format: cell-based; settings: HEK-GlyT-2 cells
T1 construct: expressed in transfected cells
T1 sequence (Q9Y345 1-797): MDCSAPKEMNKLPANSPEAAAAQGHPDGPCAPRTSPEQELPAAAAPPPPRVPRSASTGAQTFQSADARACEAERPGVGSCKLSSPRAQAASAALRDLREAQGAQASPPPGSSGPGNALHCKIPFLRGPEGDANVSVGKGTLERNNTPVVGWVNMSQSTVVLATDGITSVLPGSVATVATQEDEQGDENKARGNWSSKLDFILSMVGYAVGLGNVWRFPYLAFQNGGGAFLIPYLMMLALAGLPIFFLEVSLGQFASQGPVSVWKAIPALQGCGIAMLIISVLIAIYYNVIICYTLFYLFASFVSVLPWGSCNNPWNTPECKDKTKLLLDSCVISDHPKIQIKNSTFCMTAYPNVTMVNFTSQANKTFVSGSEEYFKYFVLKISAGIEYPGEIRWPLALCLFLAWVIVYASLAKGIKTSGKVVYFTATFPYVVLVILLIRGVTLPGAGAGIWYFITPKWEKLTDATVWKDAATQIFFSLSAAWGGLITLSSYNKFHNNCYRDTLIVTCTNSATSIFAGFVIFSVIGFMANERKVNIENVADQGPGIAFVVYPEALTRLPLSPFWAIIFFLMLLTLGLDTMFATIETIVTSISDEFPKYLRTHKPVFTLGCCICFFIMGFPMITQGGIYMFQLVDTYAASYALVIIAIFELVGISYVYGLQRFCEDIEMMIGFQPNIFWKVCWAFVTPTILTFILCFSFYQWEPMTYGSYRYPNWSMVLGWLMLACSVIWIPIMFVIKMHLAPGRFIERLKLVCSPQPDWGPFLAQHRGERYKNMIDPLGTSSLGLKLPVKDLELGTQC

[2] = biological target: T2, glycine transporter-1 (GlyT-1) (Homo sapiens, UniProt P48067); test: [14C]glycine uptake assay in JAR cells endogenously expressing GlyT-1 (scintillation proximity); format: cell-based; settings: JAR cells, [14C]glycine 5 μM, 3 hour incubation; read-out: GlyT-1 IC50
T2 construct: JAR cells (ATCC#HTB-144), which endogenously express GlyT-1; host or cells: JAR human choriocarcinoma cells
T2 sequence (P48067 1-706): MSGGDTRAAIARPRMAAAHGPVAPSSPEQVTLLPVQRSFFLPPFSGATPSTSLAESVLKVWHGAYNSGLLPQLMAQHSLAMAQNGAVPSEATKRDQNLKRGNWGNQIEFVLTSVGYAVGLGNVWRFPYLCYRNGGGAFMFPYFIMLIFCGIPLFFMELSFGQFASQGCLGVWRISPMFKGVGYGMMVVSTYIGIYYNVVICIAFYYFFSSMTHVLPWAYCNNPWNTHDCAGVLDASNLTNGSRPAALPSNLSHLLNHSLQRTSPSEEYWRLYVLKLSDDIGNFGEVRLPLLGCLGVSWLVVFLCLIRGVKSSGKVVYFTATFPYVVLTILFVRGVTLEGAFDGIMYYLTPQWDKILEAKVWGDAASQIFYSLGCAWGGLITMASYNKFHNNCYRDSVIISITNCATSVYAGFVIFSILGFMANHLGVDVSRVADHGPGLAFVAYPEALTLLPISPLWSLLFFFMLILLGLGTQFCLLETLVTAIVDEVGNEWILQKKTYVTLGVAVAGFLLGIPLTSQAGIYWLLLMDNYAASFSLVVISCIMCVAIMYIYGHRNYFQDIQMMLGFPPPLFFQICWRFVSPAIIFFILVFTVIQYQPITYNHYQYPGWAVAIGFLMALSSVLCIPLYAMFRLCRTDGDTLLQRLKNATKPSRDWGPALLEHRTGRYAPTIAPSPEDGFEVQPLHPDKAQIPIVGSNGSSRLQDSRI
How it was run: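 IC50 comes from a four-parameter fit of nine-point, duplicate curves measuring inhibition of 5 μM [14C]glycine uptake, read by scintillation proximity after 3 h at 37 °C. Cells are human JAR, which express GlyT-1 endogenously, given 10 min compound pre-treatment in pH 7.4 buffer with 5 mM alanine and 0.75% DMSO.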

CCCS(=O)(=O)N1CCN(C2(CNC(=O)c3c(Cl)cc(Cl)cc3Cl)CCC(F)(F)CC2)CC1 [compound 260, 2,4,6-Trichloro-N-((4,4-difluoro-1-(4-(propylsulfonyl)piperazin-1-yl)cyclohexyl)methyl) benzamide Hydrochloride]
IC50 [1]: > 75000 nM | IC50 [2]: 17 nM

CCCS(=O)(=O)N1CCN(C2(CNC(=O)c3c(F)cccc3OC)CCOCC2)CC1 [compound 123, 2-Fluoro-6-methoxy-N-((4-(4-(propyl-sulfonyl)piperazin-1-yl)tetrahydro-2H-pyran-4-yl)methyl)benzamide Hydrochloride]
IC50 [1]: > 75000 nM | IC50 [2]: 418 nM

CCCS(=O)(=O)N1CCN(C2(CNC(=O)c3ccc(Cl)cc3C3CC3)CCC(F)(F)CC2)CC1 [compound 253, 4-Chloro-2-cyclopropyl-N-((4,4-difluoro-1-(4-(propylsulfonyl)piperazin-1-yl)cyclohexyl)methyl) benzamide Hydrochloride]
IC50 [1]: > 75000 nM | IC50 [2]: 21 nM

Cn1cnc(S(=O)(=O)N2CCN(C3(CNC(=O)c4ccccc4OC(F)(F)F)CCC(F)(F)CC3)CC2)c1 [compound 161, N-((4,4-difluoro-1-(4-(1-methyl-1H-imidazol-4-ylsulfonyl)piperazin-1-yl)cyclohexyl)methyl)-2-(trifluoromethoxy) benzamide Hydrochloride]
IC50 [1]: > 75000 nM | IC50 [2]: 1 nM

Cn1cnc(S(=O)(=O)N2CCN(C3(CNC(=O)c4ccc(F)cc4F)CCCCC3)CC2)c1 [compound 100, 2,4-Difluoro-N-((1-(4-(1-methyl-1H-imidazol-4-ylsulfonyl)piperazin-1-yl)cyclohexyl)methyl) benzamide Hydrochloride]
IC50 [1]: > 75000 nM | IC50 [2]: 30 nM

Cn1cnc(S(=O)(=O)N2CCN(C3(CNC(=O)c4c(N)cccc4Cl)CCCCC3)CC2)c1 [compound 99, 2-Amino-6-chloro-N-((1-(4-(1-methyl-1H-imidazol-4-ylsulfonyl)piperazin-1-yl)cyclohexyl)methyl) benzamide Hydrochloride]
IC50 [1]: > 75000 nM | IC50 [2]: 2 nM

Cc1cc(F)ccc1C(=O)NCC1(N2CCN(S(=O)(=O)c3cn(C)cn3)CC2)CCCCC1 [compound 102, 4-Fluoro-2-methyl-N-((1-(4-(1-methyl-1H-imidazol-4-ylsulfonyl)piperazin-1-yl)cyclohexyl)methyl) benzamide Hydrochloride]
IC50 [1]: > 75000 nM | IC50 [2]: 10 nM

CCCS(=O)(=O)N1CCN(C2(CNC(=O)c3ccc(C)cc3C)CCCCC2)CC1 [compound 30, 2,4-Dimethyl-N-((1-(4-(propylsulfonyl)piperazin-1-yl)cyclohexyl)methyl) benzamide Hydrochloride]
IC50 [1]: > 75000 nM | IC50 [2]: 79 nM

CC(NC(=O)c1ccc(C(F)(F)F)cc1Cl)C1(N2CCN(S(=O)(=O)c3cn(C)nn3)CC2)CCC(F)(F)CC1 (stereo not drawn) [compound 223, 2-Chloro-N-(1-(4,4-difluoro-1-(4-(1-methyl-1H-1,2,3-triazol-4-ylsulfonyl)piperazin-1-yl)cyclohexyl)ethyl)-4-(trifluoromethyl)benzamide Hydrochloride]
IC50 [1]: > 75000 nM | IC50 [2]: 33 nM

CCCS(=O)(=O)N1CCN(C2(CNC(=O)c3c(F)cc(Cl)cc3F)CCC(F)(F)CC2)CC1 [compound 259, 4-Chloro-N-((4,4-difluoro-1-(4-(propylsulfonyl)piperazin-1-yl)cyclohexyl)methyl)-2,6-difluorobenzamide Hydrochloride]
IC50 [1]: > 75000 nM | IC50 [2]: 25 nM

CCCS(=O)(=O)N1CCN(C2(CNC(=O)c3ccccc3C(F)(F)F)CCCCC2)CC1 [compound 50, N-((1-(4-(Propylsulfonyl)piperazin-1-yl)cyclohexyl)methyl)-2-(trifluoromethyl)benzamide Hydrochloride]
IC50 [1]: > 75000 nM | IC50 [2]: 48 nM

CCCS(=O)(=O)N1CCN(C2(CNC(=O)c3ccc(C)cc3)CCCCC2)CC1 [compound 25, 4-Methyl-N-((1-(4-(propylsulfonyl)piperazin-1-yl)cyclohexyl)methyl) benzamide Hydrochloride]
IC50 [1]: > 75000 nM | IC50 [2]: 767 nM
